For eleven compounds, TGI results are on record in PubChem BioAssay (NCI).

Some test systems named below: COLO 205 colon; HS 578T breast; PC-3 prostate; SK-OV-3 ovarian; DU-145 prostate; MOLT-4 leukemia; HT29 colon; A549 NSCLC; OVCAR-8 ovarian; SK-MEL-5 melanoma; KM12 colon; LOX IMVI melanoma.
Experiment in all cases: NCI tumour cell line growth inhibition, 48 h

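Tested at 5 concentrations; 48 h exposure; 96-well plates; endpoints linearly interpolated, else capped at highest concentration. TGI: total growth inhibition.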

Take `Cc1cc(S(=O)(=O)N=C2N(Cc3ccccc3)CCN2Cc2ccccc2)c(S)cc1Cl`: the TGI in the test on COLO 205 colon, with HS 578T breast, in the test on PC-3 prostate, in the test with SK-OV-3 ovarian, with DU-145 prostate and with MOLT-4 leukemia was above 100 µM in each case. Besides, the TGI in the test with HT29 colon, in the test on A549 NSCLC, with OVCAR-8 ovarian, in the test with SK-MEL-5 melanoma, in the test on KM12 colon and in the test with LOX IMVI melanoma was above 100 µM each time.

As to `C[C@]12CCC(=O)O[C@H]1CCCCO2`, the TGI in the test with COLO 205 colon, with HS 578T breast, in the test with PC-3 prostate, with SK-OV-3 ovarian, in the test on DU-145 prostate and in the test with MOLT-4 leukemia was above 100 µM in each case. Further, the TGI in the test with HT29 colon, in the test with A549 NSCLC, in the test on OVCAR-8 ovarian, in the test with SK-MEL-5 melanoma, in the test with KM12 colon and in the test on LOX IMVI melanoma was above 100 µM each time.

On to `Cc1ccc(SCC(CF)OC(C)n2cnc3c(=O)[nH]c(N)nc32)cc1` (configuration not stated), for which the TGI with COLO 205 colon, with HS 578T breast, with PC-3 prostate, with SK-OV-3 ovarian, in the test with DU-145 prostate and with MOLT-4 leukemia was above 100 µM throughout. Further, the TGI is above 100 µM in the test on HT29 colon; above 100 µM in the test on A549 NSCLC; above 100 µM in the test on OVCAR-8 ovarian; 47.6 µM in the test on SK-MEL-5 melanoma; above 100 µM with KM12 colon; above 100 µM in the test on LOX IMVI melanoma.

With `Cn1cc(NC(=O)c2cc(NC(=O)CN=C(N)N)cn2C)cc1C(=O)NCCC(=N)N`, the TGI in the test on COLO 205 colon, in the test on HS 578T breast, with PC-3 prostate, in the test with SK-OV-3 ovarian, with DU-145 prostate and in the test on MOLT-4 leukemia was above 100 µM throughout. For the same compound, the TGI in the test with HT29 colon, in the test with A549 NSCLC, with OVCAR-8 ovarian, in the test on SK-MEL-5 melanoma, with KM12 colon and in the test with LOX IMVI melanoma was above 100 µM each time.

Regarding `O=C(O)Cc1cccc2c(=O)c3ccccc3oc12`, the TGI in the test with COLO 205 colon is above 100 µM; with HS 578T breast, above 100 µM; in the test with PC-3 prostate it was above 100 µM; in the test on SK-OV-3 ovarian, 41.9 µM; in the test with DU-145 prostate it was above 100 µM; with MOLT-4 leukemia, above 100 µM. Moreover, the TGI in the test with HT29 colon, in the test on A549 NSCLC, in the test on OVCAR-8 ovarian, with SK-MEL-5 melanoma, with KM12 colon and with LOX IMVI melanoma was above 100 µM in each case.

As for `COC[C@@H](C[C@H]1O[C@@](O)([C@H](O)[C@@H]2C[C@H](OC)[C@@H](O)CC/C=C(C)/C=C/[C@@H](O[C@@H]3O[C@@H](C)[C@H](OC)[C@@H](O)[C@@H]3O)[C@H](C)/C=C(C)/C=C(C)/C=C(\C)C(=O)O2)[C@H](C)[C@@H](O)[C@H]1C)O[C@H]1C[C@](C)(O)[C@@H](O[C@H]2C[C@@H](OC)[C@H](O)[C@@H](C)O2)C(C)O1` (some centres not stated), the TGI in the test with COLO 205 colon is above 100 µM; in the test on HS 578T breast, above 100 µM; with PC-3 prostate, above 100 µM; in the test on SK-OV-3 ovarian, above 100 µM; in the test on DU-145 prostate, above 100 µM; in the test with MOLT-4 leukemia, above 64.3 µM. Besides, the TGI in the test on HT29 colon, with A549 NSCLC, with OVCAR-8 ovarian, in the test with SK-MEL-5 melanoma, in the test with KM12 colon and with LOX IMVI melanoma was above 100 µM each time.

On to `COc1ccccc1/C=C1\SC(=S)N(/C=C2\C(=O)Oc3ccccc3C2=O)C1=O`, for which the TGI with COLO 205 colon was 50.4 µM; in the test with HS 578T breast, above 100 µM; in the test on PC-3 prostate, above 100 µM; with SK-OV-3 ovarian, 76 µM; in the test with DU-145 prostate, above 100 µM; with MOLT-4 leukemia it was above 100 µM. Moreover, the TGI with HT29 colon was above 100 µM; in the test on A549 NSCLC, above 100 µM; in the test with OVCAR-8 ovarian, above 100 µM; in the test on SK-MEL-5 melanoma, 51.4 µM; in the test on KM12 colon, above 100 µM; in the test on LOX IMVI melanoma, above 100 µM.

Regarding `COc1cc(Cn2c3c(c4cc(O)ccc42)Cc2ccccc2C3=O)cc(OC)c1`, the TGI in the test on COLO 205 colon, in the test on HS 578T breast, with PC-3 prostate, in the test with SK-OV-3 ovarian, in the test on DU-145 prostate and with MOLT-4 leukemia was above 100 µM each time. Besides, the TGI with HT29 colon, with A549 NSCLC, in the test with OVCAR-8 ovarian, with SK-MEL-5 melanoma, in the test on KM12 colon and with LOX IMVI melanoma was above 100 µM each time.

Regarding `CCOCc1nc2c(OC)cc(-c3nc4ccc(N5CCN(C)CC5)cc4[nH]3)c(OC)c2[nH]1`, the TGI was 38 µM in the test on COLO 205 colon; above 100 µM in the test with HS 578T breast; above 100 µM in the test on PC-3 prostate; above 100 µM in the test on SK-OV-3 ovarian; above 100 µM in the test with DU-145 prostate; 76.6 µM with MOLT-4 leukemia. Also, the TGI was 83 µM in the test with HT29 colon; above 100 µM in the test on A549 NSCLC; above 100 µM in the test on OVCAR-8 ovarian; 31.6 µM in the test with SK-MEL-5 melanoma; above 100 µM with KM12 colon; 42.3 µM in the test on LOX IMVI melanoma.

On to `O=Cc1c(C(=O)O)[nH]c(=O)[nH]c1=O`, for which the TGI in the test with COLO 205 colon, with HS 578T breast, in the test with PC-3 prostate, in the test with SK-OV-3 ovarian, in the test with DU-145 prostate and in the test with MOLT-4 leukemia was above 100 µM in each case. Besides, the TGI in the test on HT29 colon, in the test with A549 NSCLC, with OVCAR-8 ovarian, with SK-MEL-5 melanoma, in the test with KM12 colon and with LOX IMVI melanoma was above 100 µM each time.

For `C[N+](C)(C)CC1CCCCCCCCCCC1=O` (configuration not stated), the TGI in the test with COLO 205 colon, with HS 578T breast, in the test with PC-3 prostate, in the test on SK-OV-3 ovarian, with DU-145 prostate and with MOLT-4 leukemia was above 100 µM in each case. The TGI in the test on HT29 colon, in the test on A549 NSCLC, with OVCAR-8 ovarian, in the test with SK-MEL-5 melanoma, in the test with KM12 colon and in the test on LOX IMVI melanoma was above 100 µM each time.
